Source: PMC12472494, “Anticonvulsant Potential of 1-Aryl-6,7-dimethoxy-1,2,3,4-tetrahydroisoquinolines: Insights from Strychnine and Nicotine Models in In Vivo and In Silico Studies” (Pharmaceuticals, 2025)
Several values for one entry are separate records, joined by “and”; a condition that tells them apart may be missing. Equal entries are not always repeated.

Key:
[1] = tested on: strychnine-induced seizures; experiment: Strychnine-induced seizure model; type: in vivo, mice; settings: for increase of the survival rate of the animals: reference drugs, versus control (100% died)
From the text: (§1) The anticonvulsant effects of the examined substances were studied in male white mice weighing 18–22 g, divided into the following groups: control (including the strychnine and nicotine groups), carbamazepine group, Convulex group, and experimental groups (one for each tested substance). Simple randomization (“heads or tails” coin toss) was used to assign animals to groups. Each group contained 10 animals. Healthy animals were included in the experiments after a 14-day quarantine period. No animals were excluded from the study. Convulsant agents were administered subcutaneously at doses of 10.0 mg/kg for nicotine (Sigma–Aldrich, Saint Louis, MO, USA) and 1.5 mg/kg for strychnine (Sigma–Aldrich, Saint Louis, MO, USA), 60 min after the oral administration of the test substances at doses ranging from 0.1 to 10 mg/kg. The onset time, duration of tremors and seizures, and survival rate of the animals were recorded. Carbamazepine (Darnitsa, Kiev, Ukraine) at doses of 5.0–10.0 mg/kg and Convulex (valproate) (Gerot Pharmazeutika GmbH, Vienna, Austria) at doses of 75.0–100.0 mg/kg (based on the therapeutic anticonvulsant dose) were used as reference drugs.
(§2) Data were presented as mean ± SD for different groups. Statistical analysis was performed using OriginPro 9.0 (MicroCal Software, Northampton, MA, USA), with p < 0.05 considered statistically significant.

[2] = tested on: tremorogenic and convulsive actions of nicotine; experiment: Nicotine-induced tremor and seizure model; type: in vivo, mice; settings: for responders at 1 mg/kg: po; for survival rate of the animals increased to: at low doses (0.1–5 mg/kg); for activity against tremorogenic and convulsive actions of nicotine versus reference drugs (in words): doses of 0.1–5 mg/kg; for survival of poisoned animals compared to carbamazepine and valproate (in words): mouse, in vivo; for survival rate: reference drugs
From the text: as §1, §2

[3] = parameters: method as in PMID 36677539; settings: per os; cited from earlier work
[4] = Mus musculus, oral dose 1.0 mg/kg 60 min before strychnine 1.5 mg/kg s.c., N = 10, read-out: Survival Rate
[5] = oral dose 1.0 mg/kg 60 min before strychnine 1.5 mg/kg s.c., mean ± SD, N = 10
[6] = Mus musculus, read-out: Survival Rate
[7] = oral dose 1.0 mg/kg 60 min before nicotine 10 mg/kg s.c., mean ± SD, N = 10
[8] = Mus musculus, sc, read-out: Survival Rate
[9] = dose 75.0 mg/kg, strychnine 1.5 mg/kg s.c.
[10] = dose 100.0 mg/kg, strychnine 1.5 mg/kg s.c.
[11] = doses of 75–100 mg/kg, versus control
[12] = dose 75.0 mg/kg, nicotine 10 mg/kg s.c.
[13] = dose 100.0 mg/kg, nicotine 10 mg/kg s.c.
[14] = dose 5.0 mg/kg, strychnine 1.5 mg/kg s.c.
[15] = dose 10.0 mg/kg, strychnine 1.5 mg/kg s.c.
[16] = doses of 5–10 mg/kg, versus control
[17] = dose 5.0 mg/kg, nicotine 10 mg/kg s.c.
[18] = dose 10.0 mg/kg, nicotine 10 mg/kg s.c.

Compound | responders at 1 mg/kg [1, 4] | Duration of Tremor and Seizures [1, 5] | Latency to Tremor and Seizure Onset [1, 5] | responders at 1 mg/kg [2, 6] | Duration of Seizures [2, 7] | Latency to Seizure Onset [2, 7] | LD50 [3] | survival rate of the animals increased to [2] | activity against tremorogenic and convulsive actions of nicotine versus reference drugs (in words) [2] | other results
COc1cc2c(cc1OC)C(c1ccc(O)c(Br)c1)NCC2 (stereo not drawn) [Compound 18, 1-(3′-Bromo-4′-hydroxyphenyl)-6,7-dimethoxy-1,2,3,4-tetrahydroisoquinoline] | 50% | 0.56 ± 0.6 min | 14.6 ± 1.5 min | 70% | 8.9 ± 0.9 min | 1.7 ± 0.04 min | 3850 mg/kg and 3793.8 (3395.8 ± 4088.1) mg/kg | – | – | –
COc1cc2c(cc1OC)C(c1ccccc1)NCC2 (stereo not drawn) [Compound 2, 1-Phenyl-6,7-dimethoxy-1,2,3,4-tetrahydroisoquinoline] | 60% | 0.43 ± 0.9 min | 14.1 ± 1.5 min | 70% | 3.2 ± 0.6 min | 3.2 ± 0.07 min | 273.2 (249.7 ± 296.7) mg/kg | – | – | –
COc1cc2c(cc1OC)C(c1cc(Br)ccc1O)NCC2 (stereo not drawn) [Compound 17, 1-(2′-Hydroxy-5′-bromophenyl)-6,7-dimethoxy-1,2,3,4-tetrahydroisoquinoline] | 40% | 0.61 ± 0.5 min | 15.7 ± 1.6 min | 70% | 8.1 ± 0.8 min | 2.1 ± 0.07 min | 297.3 (270.2 ± 323.7) mg/kg | – | – | –
COc1cc2c(cc1OC)C(c1ccc(OC)c(O)c1Br)NCC2 (stereo not drawn) [Compound 27, 1-(2′-Bromo-3′-hydroxy-4′-methoxyphenyl)-6,7-dimethoxy-1,2,3,4-tetrahydroisoquinoline] | 40% | 0.53 ± 0.3 min | 10.5 ± 1.5 min | 90% | 9.7 ± 0.9 min | 2.2 ± 0.02 min | 4700 mg/kg and 4937 mg/kg and 4937.4 (4827.7 ± 5084.9) mg/kg | 90–100% | comparable activity to the reference drugs | survival of poisoned animals compared to carbamazepine and valproate (in words) [2]: did not improve the survival
COc1cc2c(cc1OC)C(c1cccc([N+](=O)[O-])c1)NCC2 (stereo not drawn) [Compound 8, 1-(3′-Nitrophenyl)-6,7-dimethoxy-1,2,3,4-tetrahydroisoquinoline] | 40% | 0.56 ± 0.4 min | 15.9 ± 1.7 min | 90% | 15.5 ± 0.3 min | 2.3 ± 0.08 min | 531.4 (501.3 ± 554.1) mg/kg | 90–100% | comparable activity to the reference drugs | –
COc1cc2c(cc1OC)C(c1cc(Br)c(O)c(OC)c1)NCC2 (stereo not drawn) [Compound 28, 1-(5′-Bromo-4′-hydroxy-3′-methoxyphenyl)-6,7-dimethoxy-1,2,3,4-tetrahydroisoquinoline] | 20% | 0.34 ± 0.8 min | 15.5 ± 1.5 min | 70% | 9.2 ± 0.4 min | 2.7 ± 0.04 min | 1532.7 (1471.5 ± 1579.5) mg/kg | – | – | survival of poisoned animals compared to carbamazepine and valproate (in words) [2]: did not improve the survival
COc1cc2c(cc1OC)C(c1ccc(N)cc1)NCC2 (stereo not drawn) [Compound 34, 1-(4′-Aminophenyl)-6,7-dimethoxy-1,2,3,4-tetrahydroisoquinoline] | 40% | 0.34 ± 0.7 min | 15.5 ± 1.8 min | 90% | 10.2 ± 0.7 min | 2.2 ± 0.04 min | 1043.2 (993.3 ± 1082.6) mg/kg | 90–100% | comparable activity to the reference drugs | –
COc1cc2c(cc1OC)C(c1ccccc1N)NCC2 (stereo not drawn) [Compound 32, 1-(2′-Aminophenyl)-6,7-dimethoxy-1,2,3,4-tetrahydroisoquinoline] | 50% | 0.34 ± 0.4 min | 18.2 ± 1.7 min | 60% | 12.2 ± 0.8 min | 1.8 ± 0.06 min | 366.3 (326.3 ± 395.6) mg/kg | – | – | –
COc1cc2c(cc1OC)C(c1ccc3c(c1)OCO3)NCC2 (stereo not drawn) [Compound 29, 1-(3′,4′-Methylenedioxyphenyl)-6,7-dimethoxy-1,2,3,4-tetrahydroisoquinoline] | 50% | 0.32 ± 0.9 min | 12.5 ± 1.8 min | 90% | 3.7 ± 0.9 min | 2.5 ± 0.07 min | 267.2 (226.3 ± 301.1) mg/kg | 90–100% | comparable activity to the reference drugs | –
CCCC(CCC)C(=O)O [Valproate (Convulex), Valproate, reference compound] | – | – | – | – | – | – | – | – | – | responders at 75 mg/kg [1, 8]: 40%; responders at 100 mg/kg [1, 8]: 20%; Duration of Tremor and Seizures [1, 9]: 0.34 ± 0.6 min; Latency to Tremor and Seizure Onset [1, 9]: 15.4 ± 1.5 min; Duration of Tremor and Seizures [1, 10]: 0.32 ± 0.4 min; Latency to Tremor and Seizure Onset [1, 10]: 14.3 ± 1.3 min; increase of latency time [1, 11]: 46–57%; reduction of the duration of seizures [1, 11]: 53%; increase of the survival rate of the animals [1]: 20–40%; responders at 75 mg/kg ([2]; Mus musculus, sc, dose 75.0 mg/kg, nicotine 10 mg/kg s.c., read-out: Survival Rate): 90%; responders at 100 mg/kg ([2]; Mus musculus, sc, dose 100.0 mg/kg, nicotine 10 mg/kg s.c., read-out: Survival Rate): 90%; Duration of Seizures [2, 12]: 6.2 ± 0.4 min; Latency to Seizure Onset [2, 12]: 1.2 ± 0.04 min; Duration of Seizures [2, 13]: 10.8 ± 0.8 min; Latency to Seizure Onset [2, 13]: 1.5 ± 0.06 min; survival rate [2]: 90%
NC(=O)N1c2ccccc2C=Cc2ccccc21 [Carbamazepine, reference compound] | – | – | – | – | – | – | – | – | – | responders at 5 mg/kg ([1]; Mus musculus, sc, dose 5.0 mg/kg, strychnine 1.5 mg/kg s.c., read-out: Survival Rate): 40%; responders at 10 mg/kg ([1]; Mus musculus, sc, dose 10.0 mg/kg, strychnine 1.5 mg/kg s.c., read-out: Survival Rate): 50%; Duration of Tremor and Seizures [1, 14]: 0.43 ± 0.5 min; Latency to Tremor and Seizure Onset [1, 14]: 14.6 ± 1.4 min; Duration of Tremor and Seizures [1, 15]: 0.38 ± 0.8 min; Latency to Tremor and Seizure Onset [1, 15]: 12.6 ± 1.7 min; increase of latency time for seizure onset [1, 16]: 29–49%; reduction of the duration of seizures [1, 16]: 21–37%; increase of the survival rate of the animals [1]: 40–50%; responders at 5 mg/kg [2, 8]: 60%; responders at 10 mg/kg [2, 8]: 80%; Duration of Seizures [2, 17]: 15.2 ± 0.9 min; Latency to Seizure Onset [2, 17]: 1.57 ± 0.07 min; Duration of Seizures [2, 18]: 4.7 ± 0.6 min; Latency to Seizure Onset [2, 18]: 1.5 ± 0.02 min; survival rate [2]: 60–80%
